The record followed here is patent US7833513B2, “Treatment of Alzheimer's Disease” (Rhode Island Hospital, priority 2004, dated 2010).

Format in all cases: in vivo, Long Evans rat
For data set [1], the system named is brain gene expression. Kind of data set: ic-STZ ± PPAR agonist: real time quantitative RT-PCR of temporal lobe, hypothalamus, cerebellum. Particulars: for ic-STZ associated reductions in IGF-II expression: rat, in vivo; for APP gene expression / Tau gene expression: temporal lobe and hypothalamus; for APP mRNA relative to control and ic-STZ: cerebella. As to the method:
On the same day, sub-sets of the ic-STZ group were given a single intra-peritoneal injection of vehicle (saline), or a PPAR-α (GW7647; 25 ug/Kg), PPAR-δ (L-165,041; 2 μg/Kg), or PPAR-γ (F-L-Leu; 20 μg/Kg) activator (CalBiochem, Carlsbad, Calif.). […] In addition, at 4 weeks of age, memory and learning were evaluated using a Morris Water Maze (R. W. Hickey, M. Akino, S. Strausbaugh, G. M. De Courten-Myers. Use of the Morris water maze and acoustic startle chamber to evaluate neurologic injury after asphyxial arrest in rats. Pediatr Res 39(1) (1996), 77-84). The procedures and use of rats in these experiments were approved by the Lifespan-Rhode Island Hospital IACUC committee.
Real Time Quantitative RT-PCR: Total RNA isolated from the temporal lobe, hypothalamus, and cerebellum was reverse transcribed using the AMV First Strand cDNA synthesis kit (Roche Diagnostics Corporation, Indianapolis, Ind.) and random oligodeoxynucleotide primers. […] In addition, pathological shifts in cell type associated with ic-STZ-mediated neurodegeneration were detected by measuring the mRNA levels of Hu (neurons), GFAP (astrocytes), myelin-associated glycloprotein (MAG-1; oligodendroglia), and allograft inflammatory factor-1 (AIF-1; microglia) (E. J. Rivera, A. Goldin, N. Fulmer, R. Tavares, J. R. Wands, S. M. de la Monte, J. Alzheimers Dis 8(3) (2005), 247-68). Ribosomal 18S RNA levels measured in parallel reactions were used to calculate the relative abundance of each mRNA transcript (J. E. Yeon, S. Califano, J. Xu, J. R. Wands, S. M. De La Monte. Potential role of PTEN phosphatase in ethanol-impaired survival signaling in the liver. Hepatology 38(3) (2003), 703-14, J. Xu, J. Eun Yeon, H. Chang, G. Tison, G. Jun Chen, J. R. Wands, et al. Ethanol impairs insulin-stimulated neuronal survival in the developing brain: Role of PTEN phosphatase. J Biol Chem (2003)). The gene expression levels were measured by real time quantitative RT-PCR Relative mRNA abundance was determined from the ng ratios of specific mRNA to 18S (J. E. Yeon, S. Califano, J. Xu, J. R. Wands, S. M. De La Monte. Potential role of PTEN phosphatase in ethanol-impaired survival signaling in the liver. Hepatology 38(3) (2003), 703-14, J. Xu, J. Eun Yeon, H. Chang, G. Tison, G. Jun Chen, J. R. Wands, et al. Ethanol impairs insulin-stimulated neuronal survival in the developing brain: Role of PTEN phosphatase. J Biol Chem (2003)).

Data set [2] has as its system insulin receptor. To be noted: temporal lobe membrane extracts.
Method: (§1) Membrane proteins were extracted from fresh frozen temporal lobe tissue (˜100 mg) by Polytron (Glen Mils Inc., Clifton, N.J.) homogenization in 5 volumes of NP-40 lysis buffer (50 mM Tris-HCl, pH 7.5, 150 mM NaCl, 1 mM EDTA, 2 mM EGTA, 1% NP-40) containing protease (1 mM PMSF, 0.1 mM TPCK, 1 μg/ml aprotinin, 1 μg/ml pepstatin A, 0.5 μg/ml leupeptin, 1 mM NaF, 1 mM Na4P2O7) and phosphatase (2 mM Na3VO4) inhibitors. The supernatant fractions obtained after centrifuging the samples at 10,000×g for 15 minutes at 4° C. were used in the binding assays. […] Protein concentrations were measured with the bicinchoninic acid (BCA) assay (Pierce, Rockford, Ill.).
(§2) Competitive equilibrium binding assays were used to assess growth factor binding in relation to ic-STZ-treatment. […]
(§3) All reactions were performed in 1.5 ml Eppendorff tubes, and the incubations were performed at 4° C. for 16 hours with gentle platform agitation. […] Each sample was counted for 1 minute in an LKB CompuGamma CS Gamma counter. Specific binding was calculated by subtracting fmols of non-specific binding, i.e. amount bound in the presence of excess cold ligand, from total fmols bound (absence of unlabeled competitive ligand). The binding assay results were analyzed using the GraphPad Prism 4 software (GraphPad Software, Inc., San Diego, Calif.).
The nature of data set [3]: ic-STZ rat pup model: blood glucose, body and brain weight, pancreas and brain histopathology. How it is done:
Control rats were identically injected with sterile saline. […] Andican et al., Clin. Exp. Pharmacol. Physiol. 32:663 (2005); Saad et al., Arch. Toxicol. (2005); Srinivasan et al., Pharmacol. Res. 52:313 (2005); Karabatas et al., Pancreas 30:318 (2005); Mabley et al., Pancreas 28:E39 (2004). […] The injections were completed within 3 minutes and the needle was withdrawn slowly from the brain.
At the termination point of the experiment, the rats were weighed and then sacrificed by isofluorane inhalation. Blood was obtained by cardiac puncture to measure glucose concentration using the OneTouch Ultra Blood Glucose Meter (Lifescan, Inc). The pancreases were harvested and immersion fixed in Histofix (Amresco Corp, Solon, Ohio) for paraffin embedding. Fresh brains were weighed and then cut in the coronal plane to obtain a ˜3 mm thick slice that flanked the infundibulum. The 3-mm brain slice was snap frozen between two slabs of dry ice, and stored at −80° C. for later RNA and protein extractions. The residual tissue was immersion fixed (Histofix) and embedded in paraffin for histopathological study and immunohistochemical staining. In approximately 20% of the cases, the brains were weighed, immersion fixed whole, and then sectioned in the coronal plane along standardized landmarks for paraffin embedding and histopathological sectioning.
Paraffin-embedded histological sections of pancreas (5 μm thick) and brain (8 μm thick) were stained with hematoxylin and eosin (H&E) and examined for histopathological lesions, i.e., inflammation, necrosis, and islet cell degeneration. […] As negative controls for the immunostaining reactions, either the primary antibody was omitted or non-relevant monoclonal antibody to Hepatitis B virus was used in place of the relevant antibody.
Prior to immunostaining, the deparaffinized, re-hydrated tissue sections were sequentially treated with 0.1 mg/ml saponin in phosphate buffered saline (10 mM sodium phosphate, 0.9% NaCl, pH 7.4; PBS), for 20 minutes at room temperature. […] After overnight incubation at 4° C. with antibodies diluted to 0.1-1 μg/ml (according to the manufacturer's recommendations), immunoreactivity was detected using rat tissue-pre-adsorbed biotinylated secondary antibodies, avidin biotin horseradish peroxidase complex (ABC) reagents, and diaminobenzidine as the chromogen (Vector Laboratories, Burlingame, Calif.). de la Monte et al., Lab. Invest. 80:1323 (2000). The sections were counterstained with hematoxylin and preserved with mounting medium and coverglass. All sections were examined under code.

The subject of data set [4] is IGF-II receptor. Particulars: temporal lobe membrane extracts.
Method: as §1, §2, §3

Take `CC(C)(Sc1ccc(CCN(CCCCC2CCCCC2)C(=O)NC2CCCCC2)cc1)C(=O)O` [PPAR-α agonist, GW7647]: the ChAT expression entry in data set [1] (cerebellum) is reported as “significantly increased”. Also, in data set [1] (hypothalamus), the Hu gene expression result is given as “significantly increased” and the MAG-1 gene expression entry is recorded as “increased”. For the same compound, in data set [1], the “ic-STZ associated reductions in IGF-II expression” value was “variably prevented” and the APP gene expression entry is listed as “significantly reduced”. Further, in data set [1] (temporal lobe), the “NOX 1 mRNA” value is reported as “significantly reduced”.

On to `CC(C)C[C@H](NC(=O)OCC1c2ccccc2-c2ccccc21)C(=O)O` [PPAR-γ agonist, F-L-Leu], for which, in data set [1], the “APP mRNA relative to control and ic-STZ” value is “significantly higher”; the “ic-STZ associated reductions in IGF-II expression” value is on record as “variably prevented”; the APP gene expression entry was “significantly reduced”; the Tau gene expression result is “restored Tau gene expression to control levels”. Further, in data set [1] (cerebellum), the “AChE mRNA compared with ic-STZ treatment alone” value is on record as “significantly reduced”, the “AIF-1 (microglia) expression relative to ic-STZ group” value is “increased”, the ChAT expression result was “significantly increased” and the “GFAP (astrocytes) expression relative to ic-STZ group” value was “decreased”. For the same compound, in data set [1] (cerebellum), the “Hu (neurons) expression relative to ic-STZ group” value was “increased”, the “IGF-I mRNA relative to control” value is “significantly increased” and the “IGF-II receptor mRNA” value is reported as “significantly increased”. For the same compound, the “AChE mRNA” value in data set [1] (hypothalamus) is “significantly increased”. Also, the “NOX 1 mRNA” value in data set [1] (temporal lobe) is reported as “significantly reduced”. In addition, the “IGF-I receptor mRNA” value in data set [1] (temporal lobe and cerebellum) is listed as “significantly increased”.

On to `CCCc1c(OCCCOc2ccc(OCC(=O)O)cc2)ccc(C(C)=O)c1O` [PPAR-δ agonist, L-165,041], for which, in data set [1], the “APP mRNA relative to control and ic-STZ” value is on record as “significantly higher”; the Tau gene expression result is “restored Tau gene expression to control levels”. Also, in data set [1] (cerebellum), the “AChE mRNA compared with ic-STZ treatment alone” value was “significantly reduced”, the “AIF-1 (microglia) expression relative to ic-STZ group” value is “increased”, the ChAT expression entry was “significantly increased” and the “GFAP (astrocytes) expression relative to ic-STZ group” value is given as “decreased”. In data set [1] (cerebellum), the “Hu (neurons) expression relative to ic-STZ group” value is recorded as “increased”, the “IGF-I mRNA relative to control” value is “significantly increased” and the “IGF-II receptor mRNA” value is listed as “significantly increased”. In data set [1] (hypothalamus), the “AChE mRNA” value is “significantly increased” and the Hu gene expression result is given as “significantly increased”. In addition, in data set [1] (temporal lobe), the “NOS 2 mRNA” value is “comparable to control”, the “NOX 1 mRNA” value is on record as “comparable to control” and the “p53 mRNA” value is listed as “comparable to control”. Besides, the “IGF-I receptor mRNA” value in data set [1] (temporal lobe and cerebellum) is “significantly increased”.

In the case of `CN(N=O)C(=O)NC1C(O)OC(CO)C(O)C1O` (centres unmarked) [STZ], the “reduction of mean equilibrium binding to the insulin receptor vs control” value in data set [2] was “approximately 85%”. In data set [3] (40 mg/kg ic-STZ), the hemorrhage in brain entry is “multiple small foci of acute subarachnoid hemorrhage”; the “insulin immunoreactivity in pancreatic islets” value is “prominent insulin immunoreactivity in all pancreatic islets”; the pancreas histopathology entry is “no evidence of inflammation, necrosis, or islet cell degeneration”; the “size of cerebral and cerebellar hemispheres” value was “conspicuously reduced in size”. Also, in data set [3] (40 mg/kg ic-STZ, day 14), the “mean blood glucose level vs control” value was “significantly lower than control”, the “mean body weight vs control” value was “significantly reduced”, the “mean brain weight vs control” value is “significantly reduced relative to control” and the “random blood glucose concentration (none of the rats above)” value is no more than 180 mg/dL. The “survival of the injections” value in data set [3] (3-day-old pups, bilateral ic injection) is “All animals survived”. For the same compound, in data set [1] (hypothalamus), the “AChE mRNA” value was “significantly increased” and the IGF-II receptor expression result was “did not significantly impair”. In data set [1] (hypothalamus and cerebellum), the “IGF-I mRNA” value is recorded as “not significantly reduced” and the IGF-I receptor expression entry was “significantly reduced”. For the same compound, in data set [1] (temporal lobe), the AChE expression entry was “significantly reduced”, the IGF-I receptor expression result is given as “did not significantly impair”, the “NOS 2 mRNA” value is “significantly increased” and the “NOS 3 mRNA” value was “significantly increased”. Further, in data set [1] (temporal lobe), the “NOX 1 mRNA” value is “significantly increased” and the “p53 mRNA” value is “significantly increased”. In data set [1] (temporal lobe and cerebellum), the “ChAT mRNA” value is “significantly reduced” and the IGF-II receptor expression result was “significantly reduced”. Also, the “insulin receptor gene expression” value in data set [1] (temporal lobe, hypothalamus, cerebellum) is given as “significantly reduced”. Besides, in data set [4], the “IGF-II binding vs control” value is reported as “significantly reduced”.
